Biological target: T1, GPR119 (Homo sapiens, UniProt Q8TDV5)
T1 sequence (Q8TDV5 1-335): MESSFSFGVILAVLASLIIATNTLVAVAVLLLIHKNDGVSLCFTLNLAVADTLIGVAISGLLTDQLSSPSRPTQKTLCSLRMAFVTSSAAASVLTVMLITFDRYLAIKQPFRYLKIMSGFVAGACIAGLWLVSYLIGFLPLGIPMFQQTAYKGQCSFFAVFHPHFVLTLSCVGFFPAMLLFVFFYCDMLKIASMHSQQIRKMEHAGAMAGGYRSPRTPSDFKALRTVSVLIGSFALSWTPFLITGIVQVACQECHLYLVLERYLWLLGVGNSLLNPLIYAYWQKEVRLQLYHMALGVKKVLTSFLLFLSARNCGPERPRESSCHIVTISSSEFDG
Test: cAMP GloSensor assay in CHO-K1
Assay type: cell-based

EC50: ~3 µM
SMILES: COC(=O)N[C@H](C(=O)N[C@@H](Cc1ccccc1)[C@@H](O)CN(Cc1ccc(-c2ccccn2)cc1)NC(=O)[C@@H](NC(=O)OC)C(C)(C)C)C(C)(C)C [atazanavir]

— article doi:10.1101/2025.03.24.645127v1 (biorxiv, 2025)
